# Laboratory results from PMC9179882 (Cancers, 2022).
# What was measured:
# 5′ETS G4 [1] = assay: PCR-stop assay, 5′ETS G4; format: biochemical; settings: 5′ETS G4 sequence, GA 0-100 µM
# [2] = system: 5′ETS (DNA, G4) GGGGGGCGGGTGGTTGGG; assay: UV-vis titration at 265 nm; settings: 100 mM KCl, 10 mM potassium phosphate; pH 7.0, 25 °C; 5 µM DNA; GA to 1:20 DNA:GA
# [3] = system: CMYC (CD and UV-vis oligonucleotide) (DNA, G4) TGGGGAGGGTGGGGAGGGTGGGGAAGG; assay: circular dichroism; settings: 100 mM KCl, 10 mM potassium phosphate; pH 7.0, 25 °C; 10 µM DNA, 100 µM GA; positive band decreased, no induced CD
# CMYC G4 = assay: PCR-stop assay, CMYC G4; format: biochemical; settings: CMYC G4 sequence, GA 0-100 µM
# SW480 xenograft = SW480 xenograft study in NSG mice; format: in vivo, NOD scid gamma (NSG) mice
# Protocol: NOD scid gamma (NSG) mice were purchased from CIBM-UGR and housed at the animal facility according to institutional guidelines (Approved Ethical Committee #152-CEEA-OH-2016). For xenograft generation, 1 × 10^5 SW480 cells in 100 μL PBS were subcutaneously injected into the flank of 8-week-old female mice. Treatment started when tumors reached ~20 mm^3. Mice were randomly divided into two groups of seven mice each and treated with either vehicle DMSO or 200 mg/kg of GA intraperitoneally every other day for 38 days. Animals were monitored every two days after cell injection until final time point when they were sacrificed, and tumors were dissected for further analyses. Specifically, tumor volumes were determined every two days using digital calipers according to the formula: In progress tumor volume = (π × length × width^2)/6 [12].
# Fixation, paraffin-embedding, and sectioning of tumor samples were performed by the histopathology core service at the Centre for Genomics and Oncological Research (Granada, Spain). In order to evaluate the percentage of proliferating cells, tumor sections were immunostained with Ki67 and counterstained with hematoxylin and eosin (H&E) at Atrys Health (Barcelona, Spain). The staining was visualized using NDP.view2 Viewing software (Hamamatsu), and Ki67 coverage was quantified on ten different images per tumor using Fiji software. In order to measure BG4 signal, tumor sections were dewaxed and rehydrated following standard methods. Epitope retrieval was performed at 100 °C for 20 min with citrate buffer (citrate-based buffer pH 6.0) according to previous studies. […] Slides were then counterstained for 5 min with DAPI to visualize the cell nuclei. Antifade Mowiol (81381, Merck, Darmstadt, Germany) was used as mounting media. Images were acquired on a Confocal Zeiss LSM 710 inverted microscope with a 63× immersion objective. BG4 mean nuclear fluorescence intensity was quantified using Fiji software (N > 2000). Antibodies used are listed in Supplementary Table S1.
# We investigated the activity of GA in a mouse xenograft model of CRC to determine if the in vitro activity of GA was paralleled in vivo. According to previous reports with SW480 cells, we executed xenograft studies by subcutaneous injection in NOD scid gamma (NSG) mice. Intraperitoneal treatment started when tumors reached ~20 mm^3 (35 days post-injection), and a therapeutic schedule with either a vehicle or 200 mg/kg of GA, every other day for 38 days, was explored based on previous studies. Initially, each group included seven animals but two mice from the control group were excluded because the tumors had developed late. Therefore, five mice were considered in the control group and seven in the GA-treated one. […] In particular, when comparing the tumor volume between control and treated animals at each time point by Student’s two-tailed t-test, significant differences were observed from the 23rd day after initiation of the treatment. Histopathological analyses of tumors from animals sacrificed at the ending point were also conducted. […] Furthermore, immunohistochemical assessment of the antigen Ki67 was used to estimate cell proliferation.
# [4] = system: 5′ETS (DNA, G4) GGGGGGCGGGTGGTTGGG; assay: fluorescent intercalator displacement (TOPRO3); settings: oligonucleotide prefolded in 100 mM KCl, 10 mM potassium phosphate; TOPRO3 displaced; 10 µM GA, single concentration; prefolding buffer pH 7.0
# 5′ETS G4 [5] = assay: TOPRO3 fluorescent intercalator displacement (FID) assay, 5′ETS G4; format: binding; settings: GA 10 µM, relative to GA-free control
# Protocol: G4-oligonucleotides listed in Supplementary Table S3 were purchased from Integrated DNA Technologies (Clareville, IA, USA). All of them were dissolved in G4s buffer (10 mM potassium phosphate, 100 mM potassium chloride at pH 7.0), heated at 95 °C for 10 min, slowly cooled to RT, and stored at 4 °C.
# We used TOPRO3 (T3605, Thermo Scientific, MA, USA) as a fluorescent intercalator for FID assays. In particular, […] TOPRO3 was incubated with […] prefolded G4s and exposed to 10 µM GA in 96-well plates. TOPRO3 was excited at 642 nm, and emission profile was monitored between 650–800 nm with Infinite M200 Plate Reader (Tecan). Fluorescence values were calculated as follows: %Fluorescence = A/B × 100; where (A) is the fluorescence value in presence of GA, and (B) corresponds to the fluorescence value in GA-free controls. All assays were conducted in triplicate. The G4-oligonucleotides used in the current study are listed in Supplementary Table S3.
# [6] = system: 5′ETS (DNA, G4) GGGGGGCGGGTGGTTGGG; assay: circular dichroism; settings: 100 mM KCl, 10 mM potassium phosphate; pH 7.0, 25 °C; 10 µM DNA, 100 µM GA; positive band decreased, no induced CD
# [7] = system: CMYC (FID oligonucleotide) (DNA, G4) GGGGCGCTTATGGGGAGGGTGGGGAGGGTGGGGAAGGTGGGGAGGAG; assay: fluorescent intercalator displacement (TOPRO3); settings: oligonucleotide prefolded in 100 mM KCl, 10 mM potassium phosphate; TOPRO3 displaced; 10 µM GA, single concentration; prefolding buffer pH 7.0
# [8] = tumors at end point, 200 mg/kg GA
structure (smiles),measurement,setting,value
"O=C(O)c1cc(O)c(O)c(O)c1 [Gallic acid, 3,4,5-trihydroxybenzoic acid]",concentration inhibiting accumulation of amplified products,5′ETS G4 [1],100 µM
same,Kd,[2],148 µM
same,binding,[3],yes
same,concentration inhibiting accumulation of amplified products,CMYC G4,50 µM
same,body weight reduction or adverse effects,SW480 xenograft; 200 mg/kg GA i.p. every other day for 38 days,No body weight reduction or adverse effects such as tumor ulceration was observed
same,progression of tumor xenografts (tumor volume),SW480 xenograft; 200 mg/kg GA i.p. every other day for 38 days vs vehicle,robust blockade on the progression of tumor xenografts
same,damage to major organs,SW480 xenograft; CRC xenografts treated with GA,without causing observable damage to major organs
same,5′ETS expression in tumors (qRT-PCR),"SW480 xenograft; responder mice, 200 mg/kg GA",significantly downregulated
same,CMYC expression in tumors (qRT-PCR),"SW480 xenograft; responder mice, 200 mg/kg GA",significantly downregulated
same,Ki67 coverage in tumor sections,SW480 xenograft; [8],coverage of Ki67 was significantly decreased
same,nuclear BG4 signal in tumor sections,SW480 xenograft; [8],significant increase in nuclear BG4 signal
same,%Fluorescence,[4],84.2%
same,TOPRO3 fluorescence percentage,5′ETS G4 [5],84.2%
same,binding,[6],yes
same,%Fluorescence,[7],84.3%
